Results taken from patent US20250205203A1, “SUBSTITUTED PYRAZOLYL COMPOUNDS AND METHODS OF USE THEREOF” (Chinook Therapeutics Canada, Inc., priority 2020, published 2025).

Experiments:
[1] = molecular target: T1, human recombinant C-terminal His-tagged LDHA (Homo sapiens (Human), UniProt P00338); experiment: Human LDHA enzyme assay; assay type: biochemical; conditions: 50 μM pyruvate, 50 μM NADH, 1% DMSO
Method: Biochemical assays include recombinant human LDH enzymatic assays in which purified recombinant human lactate dehydrogenase A (LDHA) is incubated with test compound, substrate pyruvate and coenzyme […], and its enzymatic activity measured by the formation of NAD upon conversion of pyruvate to lactate.
(§1) Compounds were dissolved in DMSO and preincubated with human recombinant C-terminal His-tagged LDHA (0.070 μg/mL) for 10 min at room temperature in assay buffer consisting of 50 mM Tris (pH 7.5) and 100 mM NaCl in black walled, clear bottom, non-binding 96-well plates. Equal volumes of substrate solution containing 100 μM of pyruvate and 100 μM of NADH in assay buffer was added to each well (final concentration 0.035 μg/mL enzyme, 50 μM pyruvate, 50 μM NADH, and 1% DMSO). For human serum albumin (HSA) shift assay, the compounds were preincubated with the enzyme in assay buffer containing 20% HSA before substrate addition (final concentration 10% HSA). The reaction was monitored at 340 nm on a plate reader (Molecular Devices) in kinetic mode for 15 min. The rate of the reaction was determined by plotting absorbance vs time.

[2] = molecular target: T1, human recombinant C-terminal His-tagged LDHA; experiment: Human LDHA enzyme assay, human serum albumin (HSA) shift assay; assay type: biochemical; conditions: final concentration 10% HSA
Method: as §1

[3] = test system: primary mouse hepatocytes; experiment: Primary mouse hepatocyte assay (lactate production); assay type: cell-based; conditions: wild type C57BL/6 hepatocytes, in presence of pyruvate
Method: LDH inhibitors can also be evaluated in an ex vivo assay consisting of primary mouse hepatocytes. Following isolation, viable wild-type murine hepatocytes are incubated with test compound in presence of pyruvate. Compound potency to modulate LDH enzymatic activity is then evaluated by measuring the conversion of pyruvate to lactate by the cells.
Compounds were evaluated in an ex vivo assay consisting of fresh primary mouse hepatocytes. Hepatocytes were isolated from wild type mice (C57BL/6NCrl from Charles River Labs) using a two-step collagenase perfusion technique which involves a sequential perfusion of anesthetized mice with Hanks' balanced salt solution and collagenase. Following isolation, viable wild type hepatocytes are incubated with test compound in presence of pyruvate and compound potency is evaluated by measuring the lactate produced by the cells using liquid chromatography coupled to mass spectrometry. Chromatographic separation was achieved on an XDB-C18 4.6×50 mm column (Agilent, Cat #927975-902) at a flow rate of 1 mL/min. Mobile phase A consisted of 0.1% formic acid in water and mobile phase B consisted of acetonitrile. A gradient program was initiated starting at 5% B which was held for 1 minutes, then ramped from 5% to 95% B over 1 minute. After holding at 95% B for 1 minute, the program changed back to 5% B. The column was equilibrated with 5% B for 1.5 minutes before the next injection. The mass spectrometer was operated in negative mode with electrospray ionization. The following transition along with their collision energy (CE) were used: 89→43 (CE: −16 V) for lactate and 92→45 (CE: −16 V) for ^13C3-Lactate (internal standard).

[4] = Liver-targeted tissue distribution profile study in rats; assay type: in vivo, rat; conditions: PO 10 mg/kg, SD rats
Method: Plasma and liver (target organ) concentrations of test compounds were determined in rats following a single per os (PO) administration of the test compounds. Male Sprague Dawley rats (6-8 weeks of age, Charles River Labs) were fasted overnight and a single dose of test compounds (10 mg/kg; as a suspension in 0.5% methyl cellulose) was administered by PO gavage. Rats were then sacrificed at 4 and 24 h after administration of the test compounds, and plasma and liver tissue samples were collected. Liver tissue samples were homogenized in 5 volumes of water:acetonitrile (50/50; v/v) mixture using a bead mill homogenizer. Plasma and liver homogenate samples were processed by protein precipitation using acetonitrile and the concentrations of the test compounds were determined by liquid chromatography-tandem mass spectrometry (SciEx triple quad 5500+ with Exion UPLC).

[5] = PH1 patients; cited from earlier work

| IC50 [1] [nM] | IC50 [2] [nM] | Measured Compound Concentration Liver-4 h [4] | Measured Compound Concentration Liver-24 h [4] | Measured Compound Concentration Plasma-4 h [4] | Measured Compound Concentration Plasma-24 h [4] | SMILES | IC50 [3] [nM] | lowering urinary oxalate [5] |
| --- | --- | --- | --- | --- | --- | --- | --- | --- |
| < 1 | 1 to 10 |  |  |  |  | NS(=O)(=O)c1ccc(Cc2c(-c3ccc(F)c(C#CC4(O)CCC4)c3)nn(-c3nc(C(=O)O)cs3)c2CC2CC2)cc1F [Example 4, 2-(5-(cyclopropylmethyl)-3-(4-fluoro-3-((1-hydroxycyclobutyl)ethynyl)phenyl)-4-(3-fluoro-4-sulfamoylbenzyl)-1H-pyrazol-1-yl)thiazole-4-carboxylic acid] | < 100 |  |
| < 1 |  |  |  |  |  | NS(=O)(=O)c1ccc(Cc2c(-c3ccc(F)c(C#CC4(O)CC4)c3)nn(-c3nc(C(=O)O)cs3)c2CC2CC2)cc1F [Example 5, 2-(5-(cyclopropylmethyl)-3-(4-fluoro-3-((1-hydroxycyclopropl)ethynyl)phenyl)-4-(3-fluoro-4-sulfamoylbenzyl)-1H-pyrazol-1-yl)thiazole-4-carboxylic acid] |  |  |
| < 1 | 1 to 10 | ++++ (++++>5 μM) | +++ (5 μM≥+++>1 μM) | + (0.25 μM≥+>0 μM) | + (0.25 μM≥+>0 μM) | CC(C)(O)C#Cc1cccc(-c2nn(-c3nc(C(=O)O)cs3)c(CC3CC3)c2Cc2ccc(S(N)(=O)=O)c(F)c2)c1 [Example 6, 2-(5-(cyclopropylmethyl)-4-(3-fluoro-4-sulfamoylbenzyl)-3-(3-(3-hydroxy-3-methylbut-1-yn-1-yl)phenyl)-1H-pyrazol-1-yl)thiazole-4-carboxylic acid] | < 100 |  |
| < 1 | 1 to 10 | ++++ (++++>5 μM) | +++ (5 μM≥+++>1 μM) | + (0.25 μM≥+>0 μM) | + (0.25 μM≥+>0 μM) | NS(=O)(=O)c1ccc(Cc2c(-c3cccc(C#CC4COC4)c3)nn(-c3nc(C(=O)O)cs3)c2CC2CC2)cc1F [Example 7, 2-(5-(cyclopropylmethyl)-4-(3-fluoro-4-sulfamoylbenzyl)-3-(3-(oxetan-3-ylethynyl)phenyl)-1H-pyrazol-1-yl)thiazole-4-carboxylic acid] | < 100 |  |
| < 1 | 1 to 10 |  |  |  |  | CC1(C#Cc2cccc(-c3nn(-c4nc(C(=O)O)cs4)c(CC4CC4)c3Cc3ccc(S(N)(=O)=O)c(F)c3)c2)COC1 [Example 8, 2-(5-(cyclopropylmethyl)-4-(3-fluoro-4-sulfamoylbenzyl)-3-(3-((3-methyloxetan-3-yl)ethynyl)phenyl)-1H-pyrazol-1-yl)thiazole-4-carboxylic acid] | < 100 |  |
| < 1 | 1 to 10 | +++ (5 μM≥+++>1 μM) | ++ (1 μM≥++>0.25 μM) | + (0.25 μM≥+>0 μM) | + (0.25 μM≥+>0 μM) | NS(=O)(=O)c1ccc(Cc2c(-c3cccc(C#CC4(O)COC4)c3)nn(-c3nc(C(=O)O)cs3)c2CC2CC2)cc1F [Example 9, 2-(5-(cyclopropylmethyl)-4-(3-fluoro-4-sulfamoylbenzyl)-3-(3-((3-hydroxyoxetan-3-yl)ethynyl)phenyl)-1H-pyrazol-1-yl)thiazole-4-carboxylic acid] | < 100 |  |

Further lines, the compound ahead of its results:

| SMILES | IC50 [1] [nM] | IC50 [2] [nM] | Measured Compound Concentration Liver-4 h [4] | Measured Compound Concentration Liver-24 h [4] | Measured Compound Concentration Plasma-4 h [4] | Measured Compound Concentration Plasma-24 h [4] | IC50 [3] [nM] | lowering urinary oxalate [5] |
| --- | --- | --- | --- | --- | --- | --- | --- | --- |
| NS(=O)(=O)c1ccc(Cc2c(-c3ccc(F)c(C#CC4(O)COC4)c3)nn(-c3nc(C(=O)O)cs3)c2CC2CC2)cc1F [Example 1, 2-(5-(Cyclopropylmethyl)-3-(4-fluoro-3-((3-hydroxyoxetan-3-yl)ethynyl)phenyl)-4-(3-fluoro-4-sulfamoylbenzyl)-1H-pyrazol-1-yl)thiazole-4-carboxylic acid] | < 1 | 1 to 10 | +++ (5 μM≥+++>1 μM) | ++ (1 μM≥++>0.25 μM) | + (0.25 μM≥+>0 μM) | + (0.25 μM≥+>0 μM) | < 100 |  |
| CC(C)(O)C#Cc1cc(-c2nn(-c3nc(C(=O)O)cs3)c(CC3CC3)c2Cc2ccc(S(N)(=O)=O)c(F)c2)ccc1F [Example 2, 2-(5-(Cyclopropylmethyl)-3-(4-fluoro-3-(3-hydroxy-3-methylbut-1-yn-1-yl)phenyl)-4-(3-fluoro-4-sulfamoylbenzyl)-1H-pyrazol-1-yl)thiazole-4-carboxylic acid] | < 1 | < 1 | +++ (5 μM≥+++>1 μM) | +++ (5 μM≥+++>1 μM) | + (0.25 μM≥+>0 μM) | + (0.25 μM≥+>0 μM) | < 100 |  |
| CC1(C#Cc2cc(-c3nn(-c4nc(C(=O)O)cs4)c(CC4CC4)c3Cc3ccc(S(N)(=O)=O)c(F)c3)ccc2F)COC1 [Example 3, 2-(5-(cyclopropylmethyl)-3-(4-fluoro-3-((3-methyloxetan-3-yl)ethynyl)phenyl)-4-(3-fluoro-4-sulfamoylbenzyl)-1H-pyrazol-1-yl)thiazole-4-carboxylic acid] | < 1 | 1 to 10 |  |  |  |  | < 100 |  |
| NS(=O)(=O)c1ccc(Cc2c(-c3ccc(F)c(C#CC4CC4)c3)nn(-c3nc(C(=O)O)co3)c2CC2CC2)cc1F [Example 10, 2-(3-(3-(Cyclopropylethynyl)-4-fluorophenyl)-5-(cyclopropylmethyl)-4-(3-fluoro-4-sulfamoylbenzyl)-1H-pyrazol-1-yl)oxazole-4-carboxylic acid] | < 1 | 1 to 10 |  |  |  |  | < 100 |  |
| Cc1ncc(CO)c(CO)c1O [Pyridoxine] |  |  |  |  |  |  |  | approximately 30% |
